From ChEMBL document CHEMBL5518174 (Eur J Med Chem, 2024)

Key:
[1] = Downregulation of HDAC9 protein expression in human NCI-H1975 cells assessed as fold change at 0.1 uM incubated for 24 hrs by immunoblotting analysis (reference value: 1); assay type: functional
[2] = Effect on HDAC6 protein expression in human MDA-MB-231 cells assessed as fold change at 0.1 uM incubated for 24 hrs by immunoblotting analysis (reference value: 1); assay type: functional
[3] = Upregulation of acetylated H3 protein expression in human NCI-H1975 cells assessed as fold change at 0.05 uM incubated for 24 hrs by immunoblotting analysis (reference value: 1); assay type: functional
[4] = Downregulation of HDAC8 protein expression in human NCI-H1975 cells assessed as fold change at 0.1 uM incubated for 24 hrs by immunoblotting analysis (reference value: 1); assay type: functional
[5] = Upregulation of acetylated H3 protein expression in human MDA-MB-231 cells assessed as fold change at 0.05 uM incubated for 24 hrs by immunoblotting analysis (reference value: 1); assay type: functional
[6] = Downregulation of HDAC9 protein expression in human NCI-H1975 cells assessed as fold change at 0.05 uM incubated for 24 hrs by immunoblotting analysis (reference value: 1); assay type: functional
Histone deacetylase 2 = Histone deacetylase 2 (Homo sapiens, UniProt Q92769); test: Inhibition of recombinant human HDAC2 using acetylated luminogenic substrate incubated for 10 mins by ultra-glo recombinant firefly luciferase based luminescence assay
Histone deacetylase 2, sequence (Q92769 whole entry): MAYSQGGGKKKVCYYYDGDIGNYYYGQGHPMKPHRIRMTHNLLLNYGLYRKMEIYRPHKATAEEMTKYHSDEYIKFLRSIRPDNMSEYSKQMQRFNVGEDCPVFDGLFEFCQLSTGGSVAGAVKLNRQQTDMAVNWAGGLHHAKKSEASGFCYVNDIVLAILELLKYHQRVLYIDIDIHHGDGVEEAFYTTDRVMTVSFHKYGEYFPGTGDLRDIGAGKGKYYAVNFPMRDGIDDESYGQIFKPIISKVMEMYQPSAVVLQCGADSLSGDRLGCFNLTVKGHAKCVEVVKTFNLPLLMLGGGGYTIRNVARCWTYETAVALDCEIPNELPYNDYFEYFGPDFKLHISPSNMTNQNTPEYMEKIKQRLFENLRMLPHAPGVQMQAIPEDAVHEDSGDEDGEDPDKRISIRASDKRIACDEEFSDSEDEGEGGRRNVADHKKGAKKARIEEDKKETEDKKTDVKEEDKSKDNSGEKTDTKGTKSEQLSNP

[7] = Toxicity in athymic nude BALB/c mouse xenografted with human NCI-H1975 cells assessed as effect on BUN level at 6 mg/kg, ip administered 5 times a week for 3 weeks and measured on day 22; assay type: organism-based; details: in vivo, 528 h, time 22 day
Histone deacetylase = test: Inhibition of HDAC in human HeLa cells nuclear extract; assay type: subcellular, Nucleus
[8] = Downregulation of HDAC4 protein expression in human NCI-H1975 cells assessed as fold change at 0.1 uM incubated for 24 hrs by immunoblotting analysis (reference value: 1); assay type: functional
[9] = Downregulation of HDAC7 protein expression in human MDA-MB-231 cells assessed as fold change at 0.05 uM incubated for 24 hrs by immunoblotting analysis (reference value: 1); assay type: functional
[10] = Effect on HDAC4 protein expression in human MDA-MB-231 cells assessed as fold change at 0.1 uM incubated for 24 hrs by immunoblotting analysis (reference value: 1); assay type: functional
[11] = Downregulation of HDAC3 protein expression in human NCI-H1975 cells assessed as fold change at 0.1 uM incubated for 24 hrs by immunoblotting analysis (reference value: 1); assay type: functional
[12] = Effect on HDAC10 protein expression in human NCI-H1975 cells assessed as fold change at 0.05 uM incubated for 24 hrs by immunoblotting analysis (reference value: 1); assay type: functional
[13] = Upregulation of acetylated H3 protein expression in human NCI-H1975 cells assessed as fold change at 0.1 uM incubated for 24 hrs by immunoblotting analysis (reference value: 1); assay type: functional
[14] = Effect on HDAC5 protein expression in human NCI-H1975 cells assessed as fold change at 0.1 uM incubated for 24 hrs by immunoblotting analysis (reference value: 1); assay type: functional

## CCOc1ccc(-c2nc(C(=O)NCc3ccc(C(=O)NO)cc3)c3[nH]c(=O)n(-c4cccnc4OC)c3n2)cn1
[1]
  fold change (FC): 0.33
[2]
  fold change (FC): 1.17
[3]
  fold change (FC): 1.77
[4]
  fold change (FC): 0.46
[5]
  fold change (FC): 1.29
[6]
  fold change (FC): 0.5
Histone deacetylase 2
  IC50: 11.5 nM
[7]
  Activity: Non-Toxic
Histone deacetylase
  IC50: 40 nM
[8]
  fold change (FC): 0.6
[9]
  fold change (FC): 0.77
[10]
  fold change (FC): 1.01
[11]
  fold change (FC): 0.37
[12]
  fold change (FC): 1.09
[13]
  fold change (FC): 2.19
[14]
  fold change (FC): 1.53
